We go through 17 molecules from patent US20230174507A1, “IMIDAZOLE 3-OXIDE DERIVATIVE BASED ACSS2 INHIBITORS AND METHODS OF USE THEREOF” (METABOMED LTD., priority 2020, published 2023).

Assay [1] addresses T1, human ACSS2 protein (Homo sapiens, UniProt Q9NR19).
T1 construct: purchased OriGene Technologies, Inc
As to the kind of experiment: ACSS2 cell-free activity assay (pyrophosphatase-coupled, Biomol green). The note with it: 10 nM human ACSS2, 90 minutes at 37 C, absorbance at 620 nm; read-out: ACSS2 Biochemical IC50. As to the method:
ACSS2 Cell-Free Activity Assay (Cell-Free IC50)
The assay is based on a coupling reaction with Pyrophosphatase: ACSS2 is converting ATP+CoA+Acetate=>AMP+pyrophosphate+Acetyl-CoA (Ac-CoA). Pyrophosphatase converts pyrophosphate, a product of the ACSS2 reaction, to phosphate which can be detected by measuring the absorbance at 620 nm after incubation with the Biomol green reagent (Enzo life Science, BML-AK111).
(§1) Cell Free IC50 Determination:
10 nM of human ACSS2 protein (OriGene Technologies, Inc) was incubated for 90 minutes at 37 C with various compounds' concentrations in a reaction containing 50 mM Hepes pH 7.5, 10 mM DTT, 90 mM KCl, 0.006% Tween-20, 0.1 mg/ml BSA, 2 mM MgCl2, 10 μM CoA, 5 mM NaAc, 300 μM ATP and 0.5 U/ml Pyrophosphatase (Sigma). At the end of the reaction, Biomol Green was added for 30 minutes at RT and the activity was measured by reading the absorbance at 620 nm. IC50 values were calculated using non-linear regression curve fit with 0% and 100% constrains (CDD Vault, Collaborative Drug Discovery, Inc.).

The target in assay [2] is T2, human ACSS1 protein (Homo sapiens, UniProt Q9NUB1).
T2 construct: purchased MyBioSource
T2 sequence (Q9NUB1 38-689): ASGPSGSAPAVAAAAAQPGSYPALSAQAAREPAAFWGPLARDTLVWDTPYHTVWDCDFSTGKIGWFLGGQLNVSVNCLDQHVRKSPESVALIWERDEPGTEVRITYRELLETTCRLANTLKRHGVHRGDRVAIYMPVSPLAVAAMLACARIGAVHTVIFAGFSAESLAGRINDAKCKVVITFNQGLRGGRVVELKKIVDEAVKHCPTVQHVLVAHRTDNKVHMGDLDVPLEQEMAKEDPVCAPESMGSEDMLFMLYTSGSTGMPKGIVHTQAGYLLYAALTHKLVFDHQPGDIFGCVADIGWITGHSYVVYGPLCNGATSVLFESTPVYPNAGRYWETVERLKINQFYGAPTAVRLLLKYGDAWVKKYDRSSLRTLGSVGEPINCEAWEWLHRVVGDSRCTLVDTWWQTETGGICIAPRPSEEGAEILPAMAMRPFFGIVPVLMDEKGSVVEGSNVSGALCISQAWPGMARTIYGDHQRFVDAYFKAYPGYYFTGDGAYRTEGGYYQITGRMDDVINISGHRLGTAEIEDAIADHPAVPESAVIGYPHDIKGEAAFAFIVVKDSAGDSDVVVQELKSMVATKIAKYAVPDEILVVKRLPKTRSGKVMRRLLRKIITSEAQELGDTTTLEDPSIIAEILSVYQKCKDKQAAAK
As to the kind of experiment: ACSS1 cell-free activity assay (pyrophosphatase-coupled, Biomol green). It counts as biochemical. Conditions: 5 nM human ACSS1, 30 minutes at room temperature, absorbance at 620 nm; call rule not given here. On the procedure:
ACSS1 Cell-Free Activity Assay (Cell-Free IC50)
The assay is based on a coupling reaction with Pyrophosphatase: ACSS1 is converting ATP+CoA+Acetate=>AMP+pyrophosphate+Acetyl-CoA (Ac-CoA). Pyrophosphatase converts pyrophosphate, a product of the ACSS1 reaction, to phosphate which can be detected by measuring the absorbance at 620 nm after incubation with the Biomol green reagent (Enzo life Science, BML-AK111).
as §1
5 nM of human ACSS1 protein (MyBioSource) was incubated for 30 minutes at room temperature with various compounds' concentrations in a reaction containing 50 mM Hepes pH 7.5, 10 mM DTT, 90 mM KCl, 0.006% Tween-20, 0.1 mg/ml BSA, 2 mM MgCl2, 15 μM CoA, 5 mM NaAc, 300 μM ATP and 0.5 U/ml Pyrophosphatase (Sigma). At the end of the reaction, Biomol Green was added for 30 minutes at RT and the activity was measured by reading the absorbance at 620 nm. IC50 values were calculated using non-linear regression curve fit with 0% and 100% constrains (CDD Vault, Collaborative Drug Discovery, Inc.).

T1 sequence (Q9NR19 whole entry): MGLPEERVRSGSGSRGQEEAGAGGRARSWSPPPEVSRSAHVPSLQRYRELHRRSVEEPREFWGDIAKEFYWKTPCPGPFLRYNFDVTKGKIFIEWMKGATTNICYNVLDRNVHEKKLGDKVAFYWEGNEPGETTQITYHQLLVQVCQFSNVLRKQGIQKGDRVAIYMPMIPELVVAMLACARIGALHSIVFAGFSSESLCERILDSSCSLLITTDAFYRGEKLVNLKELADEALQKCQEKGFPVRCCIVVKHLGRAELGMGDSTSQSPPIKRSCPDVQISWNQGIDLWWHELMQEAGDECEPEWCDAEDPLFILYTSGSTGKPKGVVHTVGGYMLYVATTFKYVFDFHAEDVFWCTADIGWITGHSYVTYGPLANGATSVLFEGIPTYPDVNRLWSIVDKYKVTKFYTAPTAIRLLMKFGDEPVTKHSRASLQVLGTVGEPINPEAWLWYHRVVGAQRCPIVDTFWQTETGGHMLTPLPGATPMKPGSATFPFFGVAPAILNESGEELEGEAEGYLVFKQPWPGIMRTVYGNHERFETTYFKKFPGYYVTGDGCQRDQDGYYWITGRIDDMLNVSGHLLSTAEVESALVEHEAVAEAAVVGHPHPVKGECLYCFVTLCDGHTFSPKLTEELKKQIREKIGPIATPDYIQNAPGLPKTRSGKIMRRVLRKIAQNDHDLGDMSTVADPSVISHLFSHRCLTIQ

In general, IC50 refers to the midpoint of a concentration-inhibition curve. Take `COc1ccc(-c2[nH]c(C)c(C(=O)Nc3cccc(CC(F)(F)F)c3)[n+]2[O-])cc1-c1c(C)cccc1C` [Compound 194, 2-(6-methoxy-2′,6′-dimethyl-[1,1′-biphenyl]-3-yl)-5-methyl-4-((3-(2,2,2-trifluoroethyl)phenyl)carbamoyl)-1H-imidazole 3-oxide]: in assay [1], the IC50 was 1 to 30 nM. Further, the “ACSS1 Biochemical IC50 (nM)” value in assay [2] is listed as “Inactive”.
As for `CCC(F)(F)c1cccc(NC(=O)c2c(C)n(COP(=O)(OC)OC)c(-c3ccc(OC)c(-c4c(C)cccc4C)c3)[n+]2[O-])c1` [Compound 205, 4-((3-(1,1-difluoropropyl)phenyl)carbamoyl)-1-(((dimethoxyphosphoryl)oxy)methyl)-2-(6-methoxy-2′,6′-dimethyl-[1,1′-biphenyl]-3-yl)-5-methyl-1H-imidazole 3-oxide], the half-maximal inhibitory concentration (IC50) in assay [1] was more than 30 nM. Further, the “ACSS1 Biochemical IC50 (nM)” value in assay [2] is listed as “Inactive”.
Taken in the same sequence, the figures for `CCC(F)(F)c1cccc(NC(=O)c2c(C)[nH]c(-c3ccc(OC)c(C4CCNCC4)c3)[n+]2[O-])c1` [Compound 162, 4-((3-(1,1-difluoropropyl)phenyl)carbamoyl)-2-(4-methoxy-3-(piperidin-4-yl)phenyl)-5-methyl-1H-imidazole 3-oxide] were less than 1 nM and “Inactive”.
Taken in the same sequence, the figures for `CCC(F)(F)c1cccc(NC(=O)c2c(C)n(COP(=O)(O)OC(C)(C)C)c(-c3ccc(OC)c(-c4c(C)cccc4C)c3)[n+]2[O-])c1` [Compound 188, 1-(((tert-butoxy(hydroxy)phosphoryl)oxy)methyl)-4-((3-(1,1-difluoropropyl)phenyl)carbamoyl)-2-(6-methoxy-2′,6′-dimethyl-[1,1′-biphenyl]-3-yl)-5-methyl-1H-imidazole 3-oxide] were 1 to 30 nM and “Inactive”.
As for `CCC(F)(F)c1cccc(NC(=O)c2c(C)[nH]c(-c3cc(C)cc(-c4c(C)cccc4C)c3)[n+]2[O-])c1` [Compound 130, 4-((3-(1,1-difluoropropyl)phenyl)carbamoyl)-5-methyl-2-(2′,5,6′-trimethyl-[1,1′-biphenyl]-3-yl)-1H-imidazole 3-oxide], the IC50 in assay [1] was 1 to 30 nM.
With `COc1ccc(-c2[nH]c(C)c(C(=O)Nc3cccc(C(=O)N4CCN(C)CC4)c3)[n+]2[O-])cc1-c1c(C)cccc1C` [Compound 163, 2-[3-(2,6-dimethylphenyl)-4-methoxy-phenyl]-5-methyl-N-[3-(4-methylpiperazine-1-carbonyl)phenyl]-3-oxido-1H-imidazol-3-ium-4-carboxamide], the IC50 in assay [1] was more than 30 nM. The “ACSS1 Biochemical IC50 (nM)” value in assay [2] is given as “Inactive”.
Taken in the same sequence, the figures for `CCC(F)(F)c1cccc(NC(=O)c2c(C)[nH]c(-c3ccc(OC)c(C4CCCCC4)c3)[n+]2[O-])c1` [Compound 145, 2-(3-cyclohexyl-4-methoxyphenyl)-4-((3-(1,1-difluoropropyl)phenyl)carbamoyl)-5-methyl-1H-imidazole 3-oxide] were more than 30 nM and “Inactive”.
For `CCC(F)(F)c1cccc(NC(=O)c2c(C)n(COC(C)=O)c(-c3ccc(OC)c(-c4c(C)cccc4C)c3)[n+]2[O-])c1` [Compound 200, 1-(acetoxymethyl)-4-((3-(1,1-difluoropropyl)phenyl)carbamoyl)-2-(6-methoxy-2′,6′-dimethyl-[1,1′-biphenyl]-3-yl)-5-methyl-1H-imidazole 3-oxide], in that order: more than 30 nM and “Inactive”.
Taken in the same sequence, the figures for `COc1ccc(-c2[nH]c(C)c(C(=O)Nc3cccc(C(=O)N4CCOCC4)c3)[n+]2[O-])cc1-c1c(C)cccc1C` [Compound 148, 2-(6-methoxy-2′,6′-dimethyl-[1,1′-biphenyl]-3-yl)-5-methyl-4-((3-(morpholine-4-carbonyl)phenyl)carbamoyl)-1H-imidazole 3-oxide] were more than 30 nM and “Inactive”.
In the case of `CCC(F)(F)c1cccc(NC(=O)c2c(C)n(COP(=O)(O)O)c(-c3ccc(OC)c(-c4c(C)cccc4C)c3)[n+]2[O-])c1` [Compound 193, 4-((3-(1,1-difluoropropyl)phenyl)carbamoyl)-2-(6-methoxy-2′,6′-dimethyl-[1,1′-biphenyl]-3-yl)-5-methyl-1-((phosphonooxy)methyl)-1H-imidazole 3-oxide], the IC50 in assay [1] is more than 30 nM. The “ACSS1 Biochemical IC50 (nM)” value in assay [2] is on record as “Inactive”.
Taken in the same sequence, the figures for `CCC(F)(F)c1cccc(NC(=O)c2c(C)[nH]c(-c3ccc(OC)c(-c4c(C)cc(C)cc4C)c3)[n+]2[O-])c1` [Compound 152, 4-((3-(1,1-difluoropropyl)phenyl)carbamoyl)-2-(6-methoxy-2′,4′,6′-trimethyl-[1,1′-biphenyl]-3-yl)-5-methyl-1H-imidazole 3-oxide] were 1 to 30 nM and “Inactive”.
Taken in the same sequence, the figures for `CCC(F)(F)c1cccc(NC(=O)c2c(C)[nH]c(-c3ccc(OC)c(-c4cccnn4)c3C)[n+]2[O-])c1` [Compound 122, 4-((3-(1,1-difluoropropyl)phenyl)carbamoyl)-2-(4-methoxy-2-methyl-3-(pyridazin-3-yl)phenyl)-5-methyl-1H-imidazole 3-oxide] were more than 30 nM and “Inactive”.
As to `C/C=C\c1cc(C)c(-c2cc(-c3[nH]c(C)c(C(=O)Nc4cccc(C(F)(F)CC)c4)[n+]3[O-])ccc2OC)c(C)c1` [Compound 160, (Z)-4-((3-(1,1-difluoropropyl)phenyl)carbamoyl)-2-(6-methoxy-2′,6′-dimethyl-4′-(prop-1-en-1-yl)-[1,1′-biphenyl]-3-yl)-5-methyl-1H-imidazole 3-oxide], in assay [1], the half-inhibitory concentration (IC50) lay within 1 to 30 nM. Also, the “ACSS1 Biochemical IC50 (nM)” value in assay [2] is on record as “Inactive”.
Taken in the same sequence, the figures for `CCC(F)(F)c1cccc(NC(=O)c2c(C)[nH]c(-c3ccc(OC)c(-c4ccncn4)c3C)[n+]2[O-])c1` [Compound 144, 4-((3-(1,1-difluoropropyl)phenyl)carbamoyl)-2-(4-methoxy-2-methyl-3-(pyrimidin-4-yl)phenyl)-5-methyl-1H-imidazole 3-oxide] were more than 30 nM and “Inactive”.
Taken in the same sequence, the figures for `Cc1cccc(C)c1-c1cc(-c2ccccc2)cc(-c2[nH]c(C)c(C(=O)Nc3cccc(C(F)(F)C4CC4)c3)[n+]2[O-])c1` [Compound 133, 4-((3-(cyclopropyldifluoromethyl)phenyl)carbamoyl)-2-(2,6-dimethyl-[1,1′:3′,1″-terphenyl]-5′-yl)-5-methyl-1H-imidazole 3-oxide] were 1 to 30 nM and “Inactive”.
Taken in the same sequence, the figures for `CCC(F)(F)c1cccc(NC(=O)c2c(C)[nH]c(-c3ccc(OC)c(N4CCN(C)CC4)c3)[n+]2[O-])c1` [Compound 165, 4-((3-(1,1-difluoropropyl)phenyl)carbamoyl)-2-(4-methoxy-3-(4-methylpiperazin-1-yl)phenyl)-5-methyl-1H-imidazole 3-oxide] were less than 1 nM and “Inactive”.
Take `CCC(F)(F)c1cccc(NC(=O)c2c(C)[nH]c(-c3ccc(OC)c(-c4c(C)cc(CCc5ccccc5)cc4C)c3)[n+]2[O-])c1` [Compound 154, 4-((3-(1,1-difluoropropyl)phenyl)carbamoyl)-2-(6-methoxy-2′,6′-dimethyl-4′-phenethyl-[1,1′-biphenyl]-3-yl)-5-methyl-1H-imidazole 3-oxide]: the IC50 in assay [1] is more than 30 nM. Moreover, the “ACSS1 Biochemical IC50 (nM)” value in assay [2] is given as “Inactive”.
